Measured values published in patent US11905254B1, “1-(3-chlorobenzylideneamino)-5,5-diphenylimidazolidine-2,4-dione as an antimicrobial compound” (KING FAISAL UNIVERSITY, priority 2023, dated 2024).

Key:
Type in all cases: cell-based
[1] = test system: Bacillus Cereus; assay: agar plate disc-diffusion, antibacterial activity by inhibition zone; details: nutrient agar, 37° C., 48 hours, DMSO control subtracted
Experimental: (§1) The agar plate disc-diffusion method was applied. […] The discs were then placed onto the surface of agar plates (nutrient agar for bacteria and Sabouraud's dextrose agar for fungi) seeded with the test organism. Each plate contained 15 mL of the agar medium, previously seeded with 0.2 mL of the broth culture of each organism pregrown for 18 hours. The plates were incubated at 37° C. for 48 hours, and 72 hours for fungi. The inhibition zones was measured in millimeter. Discs impregnated with DMSO were used as a control, and its inhibition zone was subtracted from the tested compound actual inhibition zone.
(§2) The results of the antimicrobial testing can be observed in Tables 1 and 2, below, with ciprofloxacin serving as a reference.

[2] = test system: Escherichia coli; assay: as above; details: nutrient agar, 37° C., 48 hours, DMSO control subtracted
Experimental: as §1, §2

[3] = test system: Pseudomonas aeruginosa; assay: as above; details: nutrient agar, 37° C., 48 hours, DMSO control subtracted
Experimental: as §1, §2

[4] = test system: Staphylococcus aureus; assay: as above; details: nutrient agar, 37° C., 48 hours, DMSO control subtracted
Experimental: as §1, §2

[5] = test system: Aspergillus flavus; assay: agar plate disc-diffusion, antifungal activity by inhibition zone; details: Sabouraud's dextrose agar, 37° C., 72 hours, DMSO control subtracted
Experimental: as §1, §2

[6] = test system: Chrysosporium keratinophilum; assay: as above; details: Sabouraud's dextrose agar, 37° C., 72 hours, DMSO control subtracted
Experimental: as §1, §2

[7] = test system: different microbes; assay: antimicrobial testing, overall statement on Tables 1 and 2; details: summary of Tables 1 and 2, bacteria and fungi
Experimental: The agar plate disc-diffusion method was applied. Sterilized filter papers (6 mm in diameter) were wetted with 10 μL of a solution of 1-(3-chlorobenzylideneamino)-5,5-diphenylimidazolidine-2,4-dione (4) to be tested, containing 10 mg/mL in DMSO, and the discs were allowed to air dry. The discs were then placed onto the surface of agar plates (nutrient agar for bacteria and Sabouraud's dextrose agar for fungi) seeded with the test organism. Each plate contained 15 mL of the agar medium, previously seeded with 0.2 mL of the broth culture of each organism pregrown for 18 hours. The plates were incubated at 37° C. for 48 hours, and 72 hours for fungi. The inhibition zones was measured in millimeter. Discs impregnated with DMSO were used as a control, and its inhibition zone was subtracted from the tested compound actual inhibition zone.
The antibacterial activity was screened against gram positive bacteria namely Bacillus cereus and Staphylococcus aureus and gram-negative bacterial strains namely Pseudomonas aeruginosa and Escherichia coli, while the antifungal activity was screened against Aspergillus flavus and Chrysosporium keratinophilum.

[8] = A = concentration of comp. = 10,000 μL
[9] = B = concentration of comp. = 30.000 μL
[10] = C = concentration of comp. = 50,000 μL

Compound | inhibition zone [1, 8] [millimeter] | inhibition zone [1, 9] [millimeter] | inhibition zone [1, 10] [millimeter] | inhibition zone [2, 8] [millimeter] | inhibition zone [2, 9] [millimeter] | inhibition zone [2, 10] [millimeter] | inhibition zone [3, 8] [millimeter] | inhibition zone [3, 9] [millimeter] | inhibition zone [3, 10] [millimeter] | inhibition zone [4, 8] [millimeter] | inhibition zone [4, 9] [millimeter] | inhibition zone [4, 10] [millimeter] | inhibition zone [5, 8] [millimeter] | inhibition zone [5, 9] [millimeter] | inhibition zone [5, 10] [millimeter] | inhibition zone [6, 8] [millimeter] | inhibition zone [6, 9] [millimeter] | inhibition zone [6, 10] [millimeter] | antimicrobial activities (in words) [7]
O=C(O)c1cn(C2CC2)c2cc(N3CCNCC3)c(F)cc2c1=O [Cip., ciprofloxacin, reference compound] | 29 | 30 | 42 | 30 | 39 | 60 | 29 | 30 | 53 | 43 | 44 | 53 | 29 | 30 | 42 | 29 | 30 | 53 | –
O=C1NC(=O)C(c2ccccc2)(c2ccccc2)N1/N=C/c1cccc(Cl)c1 [Compound 4, 1-(3-chlorobenzylideneamino)-5,5-diphenylimidazolidine-2,4-dione] | 26 | 28 | 39 | 24 | 30 | 46 | 23 | 24 | 42 | 24 | 30 | 40 | 20 | 24 | 35 | 24 | 25 | 41 | high antimicrobial activities
